Assay results reported in the supplement of paper PMC10307832.

What was measured:
Assay in all cases: relative viability (nuclei count vs DMSO), 5 days (fraction); higher = more cells survive
RAF265 = compound: Cn1c(Nc2ccc(C(F)(F)F)cc2)nc2cc(Oc3ccnc(-c4ncc(C(F)(F)F)[nH]4)c3)ccc21 [RAF265]
How it was run: (§1)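 Acceptance criteria were a control CV below 25% and at least one doubling per plate. Lung cancer cell lines in 1536-well plates got five library-drug doses (not always all listed) √10 apart by pinning and were left 5 days with no medium change. Viability divides treated-well nuclei by vehicle-well nuclei and is the median across plates. Nuclei were counted by MetaXpress from 4× Hoechst images.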

IPA-3 = compound: C1=CC=C2C(=C1)C=CC(=C2SSC3=C(C=CC4=CC=CC=C43)O)O [IPA-3]
How it was run: as §1

Doramapimod = compound: Cc1ccc(-n2nc(C(C)(C)C)cc2NC(=O)Nc2ccc(OCCN3CCOCC3)c3ccccc23)cc1 [Doramapimod]
How it was run: as §1

NCI-H727
relative viability (RAF265; 0.01 µM): 0.932
relative viability (RAF265; 0.03162 µM): 0.908
relative viability (RAF265; 0.1 µM): 0.834
relative viability (RAF265; 0.3162 µM): 0.7
relative viability (RAF265; 1 µM): 0.62
relative viability (IPA-3; 0.2 µM): 0.929
relative viability (IPA-3; 0.6325 µM): 0.938
relative viability (IPA-3; 2 µM): 0.816
relative viability (IPA-3; 6.325 µM): 0.901
relative viability (IPA-3; 20 µM): 0.899
relative viability (Doramapimod; 0.02 µM): 0.971
relative viability (Doramapimod; 0.06325 µM): 0.972
relative viability (Doramapimod; 0.2 µM): 1.05
relative viability (Doramapimod; 0.6325 µM): 0.885
relative viability (Doramapimod; 2 µM): 0.787

LCLC-97TM1
relative viability (RAF265; 0.01 µM): 1.04
relative viability (RAF265; 0.03162 µM): 0.899
relative viability (RAF265; 0.1 µM): 0.531
relative viability (RAF265; 0.3162 µM): 0.637
relative viability (RAF265; 1 µM): 0.418
relative viability (IPA-3; 0.2 µM): 1.04
relative viability (IPA-3; 0.6325 µM): 0.868
relative viability (IPA-3; 2 µM): 0.851
relative viability (IPA-3; 6.325 µM): 0.908
relative viability (IPA-3; 20 µM): 0.981
relative viability (Doramapimod; 0.02 µM): 0.916
relative viability (Doramapimod; 0.06325 µM): 1.04
relative viability (Doramapimod; 0.2 µM): 0.961
relative viability (Doramapimod; 0.6325 µM): 0.811
relative viability (Doramapimod; 2 µM): 0.86

BEN
relative viability (RAF265; 0.01 µM): 0.968
relative viability (RAF265; 0.03162 µM): 1.11
relative viability (RAF265; 0.1 µM): 1.11
relative viability (RAF265; 0.3162 µM): 0.95
relative viability (RAF265; 1 µM): 0.907
relative viability (IPA-3; 0.2 µM): 0.982
relative viability (IPA-3; 0.6325 µM): 0.951
relative viability (IPA-3; 2 µM): 1.07
relative viability (IPA-3; 6.325 µM): 0.943
relative viability (IPA-3; 20 µM): 1.15
relative viability (Doramapimod; 0.02 µM): 0.874
relative viability (Doramapimod; 0.06325 µM): 0.922
relative viability (Doramapimod; 0.2 µM): 1
relative viability (Doramapimod; 0.6325 µM): 0.82
relative viability (Doramapimod; 2 µM): 0.884

NCI-H2023
relative viability (RAF265; 0.01 µM): 0.988
relative viability (RAF265; 0.03162 µM): 0.988
relative viability (RAF265; 0.1 µM): 1.13
relative viability (RAF265; 0.3162 µM): 0.762
relative viability (RAF265; 1 µM): 0.808
relative viability (IPA-3; 0.2 µM): 1.37
relative viability (IPA-3; 0.6325 µM): 0.899
relative viability (IPA-3; 2 µM): 1.02
relative viability (IPA-3; 6.325 µM): 1.1
relative viability (IPA-3; 20 µM): 1.06
relative viability (Doramapimod; 0.02 µM): 0.928
relative viability (Doramapimod; 0.06325 µM): 0.975
relative viability (Doramapimod; 0.2 µM): 0.998
relative viability (Doramapimod; 0.6325 µM): 1.19
relative viability (Doramapimod; 2 µM): 0.906

LC-2-ad
relative viability (RAF265; 0.01 µM): 1.09
relative viability (RAF265; 0.03162 µM): 0.989
relative viability (RAF265; 0.1 µM): 1.11
relative viability (RAF265; 0.3162 µM): 0.748
relative viability (RAF265; 1 µM): 0.484
relative viability (IPA-3; 0.2 µM): 1.05
relative viability (IPA-3; 0.6325 µM): 0.958
relative viability (IPA-3; 2 µM): 0.978
relative viability (IPA-3; 6.325 µM): 1.03
relative viability (IPA-3; 20 µM): 0.992
relative viability (Doramapimod; 0.02 µM): 0.991
relative viability (Doramapimod; 0.06325 µM): 1.02
relative viability (Doramapimod; 0.2 µM): 1.07
relative viability (Doramapimod; 0.6325 µM): 1.02
relative viability (Doramapimod; 2 µM): 0.923

ABC-1
relative viability (RAF265; 0.01 µM): 1.22
relative viability (RAF265; 0.03162 µM): 0.881
relative viability (RAF265; 0.1 µM): 0.986
relative viability (RAF265; 0.3162 µM): 0.803
relative viability (RAF265; 1 µM): 0.633
relative viability (IPA-3; 0.2 µM): 1.08
relative viability (IPA-3; 0.6325 µM): 0.972
relative viability (IPA-3; 2 µM): 0.805
relative viability (IPA-3; 6.325 µM): 1.04
relative viability (IPA-3; 20 µM): 1.02
relative viability (Doramapimod; 0.02 µM): 0.996
relative viability (Doramapimod; 0.06325 µM): 0.864
relative viability (Doramapimod; 0.2 µM): 0.955
relative viability (Doramapimod; 0.6325 µM): 0.895
relative viability (Doramapimod; 2 µM): 0.961

NCI-H647
relative viability (RAF265; 0.01 µM): 0.931
relative viability (RAF265; 0.03162 µM): 0.974
relative viability (RAF265; 0.1 µM): 0.886
relative viability (RAF265; 0.3162 µM): 0.645
relative viability (RAF265; 1 µM): 0.505
relative viability (IPA-3; 0.2 µM): 1.27
relative viability (IPA-3; 0.6325 µM): 0.906
relative viability (IPA-3; 2 µM): 0.88
relative viability (IPA-3; 6.325 µM): 0.758
relative viability (IPA-3; 20 µM): 0.568
relative viability (Doramapimod; 0.02 µM): 1.05
relative viability (Doramapimod; 0.06325 µM): 1.03
relative viability (Doramapimod; 0.2 µM): 1.07
relative viability (Doramapimod; 0.6325 µM): 0.995
relative viability (Doramapimod; 2 µM): 0.913

NCI-H1755
relative viability (RAF265; 0.01 µM): 1.1
relative viability (RAF265; 0.03162 µM): 1.01
relative viability (RAF265; 0.1 µM): 0.984
relative viability (RAF265; 0.3162 µM): 0.889
relative viability (RAF265; 1 µM): 0.638
relative viability (IPA-3; 0.2 µM): 1.08
relative viability (IPA-3; 0.6325 µM): 0.922
relative viability (IPA-3; 2 µM): 1.04
relative viability (IPA-3; 6.325 µM): 1.01
relative viability (IPA-3; 20 µM): 1.12
relative viability (Doramapimod; 0.02 µM): 0.966
relative viability (Doramapimod; 0.06325 µM): 0.958
relative viability (Doramapimod; 0.2 µM): 1.03
relative viability (Doramapimod; 0.6325 µM): 0.988
relative viability (Doramapimod; 2 µM): 0.997

EPLC-272H
relative viability (RAF265; 0.01 µM): 0.895
relative viability (RAF265; 0.03162 µM): 0.734
relative viability (RAF265; 0.1 µM): 0.688
relative viability (RAF265; 0.3162 µM): 0.469
relative viability (RAF265; 1 µM): 0.356
relative viability (IPA-3; 0.2 µM): 1.04
relative viability (IPA-3; 0.6325 µM): 0.96
relative viability (IPA-3; 2 µM): 1
relative viability (IPA-3; 6.325 µM): 0.905
relative viability (IPA-3; 20 µM): 1.1
relative viability (Doramapimod; 0.02 µM): 0.929
relative viability (Doramapimod; 0.06325 µM): 0.899
relative viability (Doramapimod; 0.2 µM): 1.01
relative viability (Doramapimod; 0.6325 µM): 0.7
relative viability (Doramapimod; 2 µM): 0.837

NCI-H1437
relative viability (RAF265; 0.01 µM): 1.02
relative viability (RAF265; 0.03162 µM): 0.99
relative viability (RAF265; 0.1 µM): 1.01
relative viability (RAF265; 0.3162 µM): 1.03
relative viability (RAF265; 1 µM): 0.954
relative viability (IPA-3; 0.2 µM): 1.13
relative viability (IPA-3; 0.6325 µM): 1.01
relative viability (IPA-3; 2 µM): 0.994
relative viability (IPA-3; 6.325 µM): 1.04
relative viability (IPA-3; 20 µM): 1.08
relative viability (Doramapimod; 0.02 µM): 1.05
relative viability (Doramapimod; 0.06325 µM): 1.05
relative viability (Doramapimod; 0.2 µM): 0.985
relative viability (Doramapimod; 0.6325 µM): 1.07
relative viability (Doramapimod; 2 µM): 0.948

EKVX
relative viability (RAF265; 0.01 µM): 1.11
relative viability (RAF265; 0.03162 µM): 0.988
relative viability (RAF265; 0.1 µM): 1.09
relative viability (RAF265; 0.3162 µM): 0.573
relative viability (RAF265; 1 µM): 0.796
relative viability (IPA-3; 0.2 µM): 1.08
relative viability (IPA-3; 0.6325 µM): 0.994
relative viability (IPA-3; 2 µM): 1.05
relative viability (IPA-3; 6.325 µM): 1.01
relative viability (IPA-3; 20 µM): 1.32
relative viability (Doramapimod; 0.02 µM): 0.971
relative viability (Doramapimod; 0.06325 µM): 0.968
relative viability (Doramapimod; 0.2 µM): 0.876
relative viability (Doramapimod; 0.6325 µM): 1
relative viability (Doramapimod; 2 µM): 0.952
